This note sets out measurements from the Kinase Knowledgebase extract (Sharma et al. 2016).

pIC50: −log10 of the molar value.

As usually defined, the pIC50 is the IC50 on a negative log10 scale, so that one unit is a factor of ten.

The target in the experiment is EGFR (human) (UniProt P00533). The note with it: A431.
Sequence of EGFR (human) (P00533 whole entry, looked up): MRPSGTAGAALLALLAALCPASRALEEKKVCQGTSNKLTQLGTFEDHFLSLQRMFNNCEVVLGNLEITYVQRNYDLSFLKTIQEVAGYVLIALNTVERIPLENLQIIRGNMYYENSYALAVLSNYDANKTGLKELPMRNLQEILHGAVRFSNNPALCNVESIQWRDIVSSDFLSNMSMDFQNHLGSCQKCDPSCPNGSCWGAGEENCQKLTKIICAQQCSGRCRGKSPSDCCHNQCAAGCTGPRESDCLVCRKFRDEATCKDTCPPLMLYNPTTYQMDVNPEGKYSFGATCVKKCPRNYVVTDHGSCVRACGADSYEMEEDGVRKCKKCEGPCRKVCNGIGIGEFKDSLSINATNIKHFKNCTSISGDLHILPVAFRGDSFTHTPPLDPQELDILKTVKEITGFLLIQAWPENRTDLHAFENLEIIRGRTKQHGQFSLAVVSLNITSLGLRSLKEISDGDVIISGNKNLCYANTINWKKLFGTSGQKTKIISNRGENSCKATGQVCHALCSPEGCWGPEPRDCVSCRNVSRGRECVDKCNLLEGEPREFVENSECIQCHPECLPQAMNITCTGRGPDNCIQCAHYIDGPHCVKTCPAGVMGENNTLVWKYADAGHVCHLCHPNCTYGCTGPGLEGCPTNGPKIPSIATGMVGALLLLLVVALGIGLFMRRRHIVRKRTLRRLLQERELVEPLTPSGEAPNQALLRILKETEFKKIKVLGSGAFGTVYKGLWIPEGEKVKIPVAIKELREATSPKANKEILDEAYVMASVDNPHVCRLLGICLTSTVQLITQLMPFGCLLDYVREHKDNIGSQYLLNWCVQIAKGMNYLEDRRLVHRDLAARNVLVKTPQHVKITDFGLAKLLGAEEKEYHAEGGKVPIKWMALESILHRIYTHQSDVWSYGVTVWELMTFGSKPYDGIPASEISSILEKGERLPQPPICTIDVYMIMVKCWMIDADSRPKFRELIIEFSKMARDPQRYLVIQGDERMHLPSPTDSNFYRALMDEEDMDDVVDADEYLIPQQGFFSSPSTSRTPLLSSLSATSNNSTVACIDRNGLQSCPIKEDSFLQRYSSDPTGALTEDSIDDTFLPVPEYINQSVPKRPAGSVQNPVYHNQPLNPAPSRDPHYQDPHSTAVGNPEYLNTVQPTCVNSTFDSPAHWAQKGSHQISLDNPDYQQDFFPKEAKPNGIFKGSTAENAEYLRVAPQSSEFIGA
As to `Oc1cccc(N=Cc2ccccc2O)c1`, the pIC50 is below 3.85.

The molecule `Oc1ccc(N=Cc2cccc(O)c2)cc1` had a pIC50 of 4.48.

Molecule `Oc1ccc(C=Nc2ccc(O)cc2)cc1` gave a pIC50 below 3.85.

Take `Oc1cccc(C=Nc2ccccc2O)c1`: the pIC50 was 3.97.

In turn, `Oc1ccc(CNc2cccc(O)c2)cc1` had a pIC50 below 3.85.

The molecule `Oc1ccc(C=Nc2cccc(O)c2)cc1` had a pIC50 below 3.85.

In turn, `Oc1ccc(C=Nc2ccccc2O)cc1` had a pIC50 below 3.85.

Regarding `Oc1ccc(CNc2ccccc2O)cc1`, the pIC50 is below 3.85.

In the case of `Oc1cccc(CNc2cccc(O)c2)c1`, the pIC50 is below 3.85.

`Oc1ccc(NCc2cccc(O)c2)cc1` gave a pIC50 below 3.85.

Molecule `Oc1cccc(C=Nc2cccc(O)c2)c1` gave a pIC50 below 3.85.

In turn, `Oc1ccccc1CNc1ccccc1O` gave a pIC50 below 3.85.

As to `Oc1cccc(CNc2ccccc2O)c1`, the pIC50 was below 3.85.

In turn, `Oc1ccc(N=Cc2ccccc2O)cc1` gave a pIC50 of 4.04.

Take `Oc1cccc(NCc2ccccc2O)c1`: the pIC50 is below 3.85.

For `Oc1ccc(NCc2ccccc2O)cc1`, the pIC50 was below 3.85.

In turn, `Oc1ccc(CNc2ccc(O)cc2)cc1` had a pIC50 of 4.48.

Turning to `O=C(O)c1cc(N(Cc2ccccc2O)Cc2cc(O)ccc2O)ccc1O`, the pIC50 was 6.40.

Take `Oc1ccccc1C=Nc1ccccc1O`: the pIC50 is below 3.85.
